How the values were obtained:
[1] = Perm of brown hair, hydrogen water vs hydrogen peroxide as second agent; details: 30 washes, hydrogen water 10 times at 2-minute intervals, hydrogen peroxide left 10 minutes
Experimental: According to the method used in a general beauty salon using a rod, cysteine treatment as a reduction agent, intermediate washing, setting, oxidation agent treatment, and measurement after washing were performed in the order. Brown hair was treated with a reduction agent (Hair 119 Clinic SuBoon Perm, Eson Chemical, Korea) and left at 37° C. for 5 minutes. […] Then the hair was separated. After washing them once, the length of perm hair was measured. After that, the perm hair length was measured when repeatedly washed 30 times, once a day (FIG. 3C). Natural Shampoo (Repit, Korea) was used as a cleaning agent. A method of preparing hydrogen water is as follows. After adding NaCl to distilled water to prepare a 0.05% NaCl solution, salted distilled water was boiled for about 5 minutes to remove dissolved oxygen as much as possible, and then quenched to 25° C. (water cooling).

[2] = Cold perm with 25°C electrolyzed water sprayed as second agent; details: hydrogen peroxide as second agent; basis of commercial suitability; hair 27 cm
Experimental: About 50 strands of natural black hair were fixed and cut to 27 cm in length and used in the experiment. The perm process was performed as follows. The natural black hair was fixed and washed according to the above standards. After washing, the dried hair bundle was reduced by treatment with the first agent (Hair 119 Clinic SuBoon Perm, Eson Chemical, Korea) at 37° C. for 25 minutes. After the reduction process, the first agent was removed by washing with distilled water to increase the reproducibility of the wave efficiency. […] After the application was finished, the rod was removed.

[3] = Straight perm of curly hair; details: second agent (gel with 0.5% xanthan gum for the waters) oxidized 10 minutes
Experimental: The first agent used in straight perm was Standard of Hair […] Two Way Straight (UCL, Incheon). The second agent used in the perm was a mixture of Standard of Hair […] Two Way Straight (UCL, Incheon) and xanthan gum in each hydrogen water and electrolyzed water. Tap water was used to generate the used electrolyzed hydrogen water and electrolyzed water. […] To each of these, xanthan gum was added to 0.5% and mixed to form a gel. The perm process proceeded as follows. The first agent was applied to the hair and softened at 37° C. for 30 minutes. […] After the oxidation process was completed, the hair was washed, photographed, and measured.

Compound: OO [hydrogen peroxide]
- sagging of wave [1]: sagging was seen in 30 washes
- length of the perm hair after washing once [2]: about 22 cm
- split ends / hair surface (bleached, dyed hair after perm): had split ends
- dye eluted (washing once after the perm treatment, from L value): 11.43%
- result of straight perm treatment [3]: curly hair was well straightened
